Experimental data published in patent publication EP1101496A1, “THERAPEUTIC AGENTS FOR ALLERGIC DISEASES” (FUJI YAKUHIN KOGYO KABUSHIKI KAISHA, priority 1998, dated 2000).

Legend:
Allergic Rhinitis = experiment: Allergic rhinitis model (nasal airway resistance); type: in vivo, Guinea pigs; details: 15 mg/kg s.c. one hour prior to rhinitis-induction; 20 minutes after antigen-challenge
Method: Guinea pigs (male, Std:Hartley, 3 weeks old) were housed and fed in a aluminum cage at a rate of up to 5 animals per cage. After acclimatization for 1 week, the guinea pigs were administered intravenously with an anti-ovalbumin antibody (Nihon Bioresearch Inc., Hajima Institute; antibody titer by a 3-hour homologous passive cutaneous anaphylaxis reaction, 1 : 8192) prepared according to the Orange & Moore method (Orange, R. P. and Moore, E. G., The Journal of Immunology 116: p.392-397, 1976) into their auricle vein at a dose of 0.3 mL/animal for passive sensitization. Twenty four to twenty six hours after sensitization under conditions of fast and free access to drinking water, the sensitized guinea pigs were anesthetized with urethane (1.2 g/kg, intraperitoneal administration), fixed in a supine position, and mediad excised cervically to expose tracheas. […] Variations of the ventilatory overflow were quantitatively recorded on a recticoder (RECTI-HORIZ-8K, Nippon Denki Sanei K.K.) for 20 minutes after antigen-challenge.
Wave height (cm) was measured on recorded papers and a nasal airway resistance value was calculated according to the following formula: Percent Increase (%) in Nasal Airway Resistance =((Observed Value)-(Value prior to Administration))/((Complete Obstruction)-(Value prior to Administration))× 100 [formula] […]

[1] = Body weight gain in sensitized mice (experimental atopic dermatitis model); type: in vivo; details: painted on auricles twice a day; Compound No. 8 50 µg/ear/dose, prednisolone 5 µg/ear/dose; Days 1, 4 and 7; versus solvent control (ethanol)
Method: Experimental atopic dermatitis model mice sensitized in the same manner as in Example 1 were examined for influence on body weight gains.
A solution of a test metalloproteinase inhibitor (Compound No. 8; 50 µg/ear/dose, twice a day) in ethanol or a solution of prednisolone (5 µg/ear/dose, twice a day) in ethanol was administered to mice (5 animals per group) by painting onto both sides of a pair of the auricles, not only one hour prior to elicitation but also 0.25, 3, 4, 5 and 6 days post-elicitation. Each mouse was measured for its body weight not only immediately before the start in painting but also on Days 1, 4 and 7 after the start in painting. Each gain in body weight was calculated and considered to indicate an effect on body weight changes affected by said treatments.

[2] = Mouse body weight gain (side-effect index); type: in vivo, mice; details: average ± standard deviation; once a day Days 0-5; Compound No. 8 or 10 60 mg/kg s.c., prednisolone 10 mg/kg i.p.
Method: Next the mice were measured for their body weight.

[3] = test system: mouse scratching behavior; experiment: Scratching behavior in experimental atopic dermatitis model; type: in vivo, mice; details: for % Inhibition (scratching behavior) / Scratching Behavior (Times) (Average± Deviation): 0.1% in ethanol painted on auricles 1 hour pre-elicitation; for % Inhibition (scratching behavior): 15 to 30 min and 30 to 45 min post-elicitation durations, versus solvent control; for Scratching Behavior (Times) (Average± Deviation): counts for the 15 to 30 min and 30 to 45 min post-elicitation durations
Method: Mice were passively sensitized with anti-DNP IgE Ab and then elicited by painting 0.1% DNFB in ethanol onto both sides of a pair of mouse auricles […] in the same manner as in Example 1. Five minutes pre-elicitation, an ethanolic solution containing 0.3% of Compound No. 20 was painted onto both sides of a pair of the auricles at a dose of 10 µL per each side. Tacrolimus (Fujisawa Pharmaceutical Co., Ltd.) was used as a positive control drug. An ethanolic solution containing 0.1% of the positive control drug was prepared just prior to use and then painted onto the mouse auricles 1 hour pre-elicitation in the same manner as for the painting of Compound No. 20. A negative control group was painted with a solvent alone (6 animals per group).
From the point immediately after elicitation, each mouse was housed individually in a comparted acrylic cage and observed by taking a video without any attendant up to 2 hours after elicitation (Inagaki, N., et al., The European Journal of Pharmacology, 367: 361-371, 1999). After finishing such a video recording, scratching behavior by mouse hind paws to a pair of ears was visually examined for each mouse and integrated scratching behaviors were counted during 6 post-elicitation durations for 20 minutes each; 0 to 20 min., 20 to 40 min., 40 to 60 min., 60 to 80 min., 80 to 100 min., and 100 to 120 min. In this experiment, an action from a start to scratch the ear by the mouse hind paw to a release of the hind paw is counted as one scratching behavior.
Mice were passively sensitized with anti-DNP IgE Ab and then elicited with 0.1% DNFB in ethanol 24 hours post-sensitization in the same manner as in Example 12. One hour pre-elicitation, a 0.1% solution of a metalloproteinase inhibitor (Compound No. 20 or 21) in ethanol was painted onto both sides of a pair of the auricles at a dose of 10 µL per each side. A negative control group was painted with a solvent alone. From the point immediately after the elicitation, each mouse was housed individually in a comparted cage and observed by taking a video without any attendant up to 2 hours thereafter (3 animals per group). In the same manner as in Example 12, scratching behaviors by mouse hind paws were counted for every 15 minutes: 8 post-elicitation durations; 0 to 15 min., 15 to 30 min., 30 to 45 min., 45 to 60 min., 60 to 75 min., 75 to 90 min., 90 to 105 min., and 105 to 120 min.

| SMILES | increase in nasal airway resistance due to antigen challenge (FIG. 14) (Allergic Rhinitis) | gain in body weight (FIG. 9) [1] | Body Weight Gain, Day 5 [2] | Body Weight Gain, Day 7 [2] | Body Weight Gain, Day 10 [2] | % Inhibition (scratching behavior) [3] [%] | Scratching Behavior (Times) (Average± Deviation) [3] | inhibitory efficacy on scratching in the 20 to 40 min post-elicitation duration (FIG. 8) ([3]; 0.3% Compound No. 20 versus 0.1% tacrolimus, painted on auricles) | efficacy on mouse scratching behavior (FIG. 8) ([3]; 0.3% ethanolic solution painted on auricles 10 µL per side 5 minutes pre-elicitation, observed up to 2 hours) |
| --- | --- | --- | --- | --- | --- | --- | --- | --- | --- |
| CNC(=O)[C@H](Cc1ccc(NC(=N)N)cc1)NC(=O)[C@H](CC(C)C)C(CCCc1ccccc1)C(=O)NO (single isomer, unassigned) [Compound No. 8, N-[4-(N-hydroxyamino)-2(R)-isobutyl-3(R or S)-(3-phenyltrimethylene)succinyl]-L-4'-guanidophenylalanine-N-methylamide 1 acetate] | markedly ameliorates an increase in nasal airway resistance | almost equivalent to that in the solvent control group | 0.57± 0.61 | 0.77± 0.55 | 1.20± 0.26 | – | – | – | – |
| CNC(=O)[C@H](Cc1ccc(NC(=N)N)cc1)NC(=O)[C@H](CC(C)C)C(CCCc1ccccc1)C(=O)NO.Cl (single isomer, unassigned) [Compound No. 20, N-[4-(N-hydroxyamino)-2(R)-isobutyl-3(R or S)-(3-phenyltrimethylene)succinyl]-L-4'-guanidophenylalanine-N-methylamide 1 hydrochloride] | – | – | – | – | – | 40.7 | 124.0 ± 43.6 | higher than that of tacrolimus | apparently inhibits mouse scratching behavior |
| CNC(=O)[C@H](Cc1ccc(N=C(N)N)cc1)NC(=O)[C@@H](CC(=O)NO)CC(C)C.O=S(=O)(O)O [Compound No. 21, N-[4-(N-hydroxyamino)-2(R)-isobutylsuccinyl]-L-4'-guanidophenylalanine-N-methylamide 1 sulfate] | – | – | – | – | – | 54.1 | 96.0 ± 32.6 | – | – |
